Experimental data taken from the NIST ThermoML archive (doi:10.1016/j.jct.2019.03.014).

Experiments:
[1] = xn = mol fraction of the nth substance listed; conditions: Ring tensiometer
[2] = Ring tensiometer

OCC(O)CO [glycerol] + CCCCO
surface tension liquid-gas [mN/m], [1]
Conditions | x2 = 0 | x2 = 0.1 | x2 = 0.2 | x2 = 0.3 | x2 = 0.4 | x2 = 0.5 | x2 = 0.6 | x2 = 0.7 | x2 = 0.8 | x2 = 0.9
293.2 K | 63.1 | 33.1 | 28 | 26.4 | 26.2 | 25.9 | 25.7 | 25.4 | 25.2 | 24.8
303.2 K | 62.4 | 32.9 | 27.7 | 26.2 | 26 | 25.7 | 25.4 | 25.1 | 24.8 | 24.3
313.2 K | 62 | 32.8 | 27.3 | 26.1 | 25.8 | 25.5 | 25.1 | 24.8 | 24.5 | 23.7
323.2 K | 61.1 | 32.7 | 27 | 25.6 | 25.2 | 24.7 | 24.3 | 24 | 23.7 | 22.7
333.2 K | 60.5 | 32.5 | 26.7 | 25.3 | 24.8 | 24.3 | 23.7 | 23.2 | 22.9 | 21.6

CC(C)O [propan-2-ol]
[2]
Conditions | surface tension liquid-gas [mN/m]
293.2 K | 21.4
303.2 K | 20.7
313.2 K | 19.7
323.2 K | 18.7
333.2 K | 17.6

CCCO [propan-1-ol]
[2]
Conditions | surface tension liquid-gas [mN/m]
293.2 K | 23.7
303.2 K | 22.9
313.2 K | 22.1
323.2 K | 21.3
333.2 K | 20.6

CCO [ethanol]
[2]
Conditions | surface tension liquid-gas [mN/m]
293.2 K | 22.3
303.2 K | 21.4
313.2 K | 20.6
323.2 K | 19.8
333.2 K | 19

CCCO [propan-1-ol] + OCC(O)CO
[1], x1 = 1
Conditions | surface tension liquid-gas [mN/m]
293.2 K | 23.7
303.2 K | 22.9
313.2 K | 22.1
323.2 K | 21.3
333.2 K | 20.6

CC(C)O [propan-2-ol] + OCC(O)CO
[1], x1 = 1
Conditions | surface tension liquid-gas [mN/m]
293.2 K | 21.4
303.2 K | 20.7
313.2 K | 19.7
323.2 K | 18.7
333.2 K | 17.6

CCO [ethanol] + OCC(O)CO
[1], x1 = 1
Conditions | surface tension liquid-gas [mN/m]
293.2 K | 22.3
303.2 K | 21.4
313.2 K | 20.6
323.2 K | 19.8
333.2 K | 19

OCC(O)CO [glycerol] + CCCO
surface tension liquid-gas [mN/m], [1]
Conditions | x2 = 0 | x2 = 0.1 | x2 = 0.2 | x2 = 0.3 | x2 = 0.4 | x2 = 0.5 | x2 = 0.6 | x2 = 0.7 | x2 = 0.8 | x2 = 0.9
293.2 K | 63.1 | 41.8 | 33.4 | 30.1 | 28.3 | 27.3 | 26.5 | 26 | 25.3 | 24.7
303.2 K | 62.4 | 41.5 | 33.1 | 29.7 | 27.9 | 26.9 | 26.1 | 25.5 | 24.8 | 24.1
313.2 K | 62 | 41.2 | 32.8 | 29.3 | 27.7 | 26.4 | 25.7 | 25 | 24.2 | 23.3
323.2 K | 61.1 | 40.9 | 32.5 | 28.9 | 27.2 | 26 | 25.3 | 24.5 | 23.6 | 22.5
333.2 K | 60.5 | 40.5 | 32.2 | 28.5 | 26.6 | 25.6 | 25 | 24 | 23 | 21.6

OCC(O)CO [glycerol] + CCO
surface tension liquid-gas [mN/m], [1]
Conditions | x2 = 0 | x2 = 0.1 | x2 = 0.2 | x2 = 0.3 | x2 = 0.4 | x2 = 0.5 | x2 = 0.6 | x2 = 0.7 | x2 = 0.8 | x2 = 0.9
293.2 K | 63.1 | 52.9 | 41.7 | 36.1 | 31.9 | 29 | 27.5 | 26.2 | 24.9 | 23.7
303.2 K | 62.4 | 52.4 | 41.4 | 35.9 | 31.6 | 28.5 | 27.1 | 25.4 | 24.2 | 23.2
313.2 K | 62 | 52 | 41.1 | 35.7 | 31.2 | 27.9 | 26.7 | 24.5 | 23.5 | 22.6
323.2 K | 61.1 | 51.5 | 40.7 | 35.4 | 30.9 | 27.7 | 26.3 | 23.6 | 22.8 | 22
333.2 K | 60.5 | 51.1 | 40.5 | 35 | 30.6 | 27.2 | 25.9 | 22.7 | 22.1 | 21.2

OCC(O)CO [glycerol]
[2]
Conditions | surface tension liquid-gas [mN/m]
293.2 K | 63.1
298.2 K | 62.9
303.2 K | 62.4
313.2 K | 62
323.2 K | 61.1
333.2 K | 60.5

CCCCO [butan-1-ol]
[2]
Conditions | surface tension liquid-gas [mN/m]
293.2 K | 24.7
303.2 K | 23.8
313.2 K | 22.8
323.2 K | 21.6
333.2 K | 20.3

CCCCO [butan-1-ol] + OCC(O)CO
[1], x1 = 1
Conditions | surface tension liquid-gas [mN/m]
293.2 K | 24.7
303.2 K | 23.8
313.2 K | 22.8
323.2 K | 21.6
333.2 K | 20.3

OCC(O)CO [glycerol] + CC(C)O
surface tension liquid-gas [mN/m], [1]
Conditions | x2 = 0 | x2 = 0.1 | x2 = 0.2 | x2 = 0.3 | x2 = 0.4 | x2 = 0.5 | x2 = 0.6 | x2 = 0.7 | x2 = 0.8 | x2 = 0.9
293.2 K | 63.1 | 45.7 | 34.3 | 28.8 | 26.7 | 25.6 | 24.8 | 23.9 | 22.8 | 21.9
303.2 K | 62.4 | 45.1 | 34 | 28.5 | 26.2 | 25.1 | 24.2 | 23.4 | 22.3 | 21.4
313.2 K | 62 | 44.4 | 33.6 | 28 | 25.8 | 24.6 | 23.7 | 23 | 21.8 | 20.9
323.2 K | 61.1 | 43.9 | 32.9 | 27.6 | 25.5 | 24.1 | 23.5 | 22.5 | 21.2 | 20
333.2 K | 60.5 | 43.2 | 32.2 | 27.2 | 25 | 23.7 | 22.6 | 22.1 | 20.6 | 19.1
